Source: patent publication US10689425B2, “Collagen-binding synthetic peptidoglycans, preparation, and methods of use” (Purdue Research Foundation, priority 2008, dated 2020)
Groups on a side chain read outwards from the residue. *: point of attachment. PDPH = heterobifunctional sulfhydryl-reactive crosslinker; Dansyl = CN(C)c1cccc2c(S(=O)(=O)*)cccc12

Assays:
[1] = system: collagen; assay: Microplate fluorescence binding of dansyl-labelled peptide or conjugate to immobilized collagen; details: collagen vs BSA and untreated wells; 100 μM to 10 nM
Description: Binding assays were done in a 96-well high-binding plate, black with a clear bottom (Costar). Collagen was compared to untreated wells and BSA coated wells. Collagen and BSA were immobilized at 37° C. for 1 hr by incubating 90 μL/well at concentrations of 2 mg/mL in 10 mM HCl and 1×PBS, respectively. Each well was washed 3× with 1×PBS after incubating. Z-SILY was dissolved in 1×PBS at concentrations from 100 μM to 10 nM in 10-fold dilutions. Wells were incubated for 30 min at 37° C. and rinsed 3× with PBS and then filled with 90 μL of 1×PBS. Fluorescence readings were taken on an M5 Spectramax Spectrophotometer (Molecular Devices) at excitation/emission wavelengths of 335 nm/490 nm respectively.
Binding assays were done in a 96-well high binding plate, black with a clear bottom (Costar). Collagen was compared to untreated wells and BSA coated wells. Collagen and BSA were immobilized at 37° C. for 1 hr by incubating 90 μL/well at concentrations of 2 mg/mL in 10 mM HCl and 1×PBS respectively. […]
Wells were preincubated with DS at 37° C. for 30 min to eliminate nonspecific binding of DS to collagen. […] Fluorescence readings were taken on an M5 Spectramax Spectrophotometer (Molecular Devices) at excitation/emission wavelengths of 335 nm/490 nm respectively.
The fluorescence binding assays described for DS-ZSILY was performed with peptide sequence ZSYIRIADTNITGC (ZDc13).

[2] = biological target: T1, Type I collagen gels (Bos taurus, UniProt P02453+P02465); assay: Cryo-SEM of type I collagen gels (fibril diameter, sheet distance, fibril density); details: for Fibril diameter: Example 29, images at 20,000×, α=0.05
T1 construct: purchased Inamed, Freemont, Calif; (Nutragen)
T1 sequence (P02453 162-1217 limits assumed): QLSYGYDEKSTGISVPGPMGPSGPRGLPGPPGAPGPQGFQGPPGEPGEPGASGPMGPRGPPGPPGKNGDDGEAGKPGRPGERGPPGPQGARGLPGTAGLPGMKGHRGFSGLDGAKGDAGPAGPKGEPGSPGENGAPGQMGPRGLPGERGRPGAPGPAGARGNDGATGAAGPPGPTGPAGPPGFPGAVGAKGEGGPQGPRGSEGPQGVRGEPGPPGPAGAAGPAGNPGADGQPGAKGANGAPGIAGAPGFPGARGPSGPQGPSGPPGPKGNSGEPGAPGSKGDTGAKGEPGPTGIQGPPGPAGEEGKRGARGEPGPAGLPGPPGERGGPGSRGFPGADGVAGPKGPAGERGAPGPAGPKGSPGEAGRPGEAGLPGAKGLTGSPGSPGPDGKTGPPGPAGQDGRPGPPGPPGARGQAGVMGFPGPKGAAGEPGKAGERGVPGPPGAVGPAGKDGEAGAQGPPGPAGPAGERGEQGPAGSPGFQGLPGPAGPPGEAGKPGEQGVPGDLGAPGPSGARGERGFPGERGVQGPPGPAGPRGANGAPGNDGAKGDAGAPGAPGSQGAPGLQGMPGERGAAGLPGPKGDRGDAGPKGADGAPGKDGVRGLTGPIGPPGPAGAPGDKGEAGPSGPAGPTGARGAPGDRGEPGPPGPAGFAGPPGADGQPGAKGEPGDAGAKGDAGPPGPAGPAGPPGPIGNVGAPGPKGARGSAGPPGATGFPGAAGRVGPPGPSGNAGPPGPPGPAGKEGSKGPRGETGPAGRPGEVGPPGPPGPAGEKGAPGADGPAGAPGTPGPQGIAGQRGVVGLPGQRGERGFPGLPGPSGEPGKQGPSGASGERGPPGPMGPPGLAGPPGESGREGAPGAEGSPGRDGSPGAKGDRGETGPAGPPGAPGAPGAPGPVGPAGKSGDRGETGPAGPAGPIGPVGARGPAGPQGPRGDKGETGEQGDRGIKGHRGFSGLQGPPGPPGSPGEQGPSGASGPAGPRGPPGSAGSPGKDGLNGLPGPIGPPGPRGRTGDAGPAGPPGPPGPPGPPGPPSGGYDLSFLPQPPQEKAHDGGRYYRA
T1 sequence (P02465 80-1117 limits assumed): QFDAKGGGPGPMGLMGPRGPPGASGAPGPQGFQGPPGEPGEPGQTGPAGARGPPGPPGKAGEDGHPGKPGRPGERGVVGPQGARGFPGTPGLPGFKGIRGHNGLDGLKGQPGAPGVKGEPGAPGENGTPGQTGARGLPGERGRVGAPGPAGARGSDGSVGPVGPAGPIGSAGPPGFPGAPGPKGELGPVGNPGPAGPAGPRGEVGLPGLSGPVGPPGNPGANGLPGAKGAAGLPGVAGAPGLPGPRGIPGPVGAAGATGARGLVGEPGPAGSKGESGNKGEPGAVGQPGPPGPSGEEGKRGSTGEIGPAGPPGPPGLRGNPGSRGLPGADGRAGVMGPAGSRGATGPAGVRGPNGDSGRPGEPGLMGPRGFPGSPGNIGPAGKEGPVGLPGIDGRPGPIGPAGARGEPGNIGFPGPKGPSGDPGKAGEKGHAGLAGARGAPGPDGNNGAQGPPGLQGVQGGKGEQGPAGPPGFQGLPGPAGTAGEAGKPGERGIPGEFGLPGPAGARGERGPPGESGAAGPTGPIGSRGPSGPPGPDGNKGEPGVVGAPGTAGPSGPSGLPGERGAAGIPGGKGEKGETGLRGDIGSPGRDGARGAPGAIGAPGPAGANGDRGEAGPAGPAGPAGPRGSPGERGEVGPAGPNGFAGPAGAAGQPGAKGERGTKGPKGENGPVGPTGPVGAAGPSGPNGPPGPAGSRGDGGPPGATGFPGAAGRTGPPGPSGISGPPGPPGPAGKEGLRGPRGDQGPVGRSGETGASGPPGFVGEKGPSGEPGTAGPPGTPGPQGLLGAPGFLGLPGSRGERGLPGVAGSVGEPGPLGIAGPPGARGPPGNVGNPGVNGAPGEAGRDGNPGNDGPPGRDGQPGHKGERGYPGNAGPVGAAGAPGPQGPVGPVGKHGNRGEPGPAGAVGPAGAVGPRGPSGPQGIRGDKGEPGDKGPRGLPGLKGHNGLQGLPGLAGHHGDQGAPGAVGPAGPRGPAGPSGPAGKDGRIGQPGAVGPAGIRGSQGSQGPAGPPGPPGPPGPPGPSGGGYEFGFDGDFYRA
Description: (§1) Gels were made with Nutragen collagen (Inamed, Freemont, Calif.) at a final concentration of 4 mg/mL collagen. Nutragen stock is 6.4 mg/mL in 10 mM HCl. Gel preparation was performed on ice, and fresh samples were made before each test. The collagen solution was adjusted to physiologic pH and salt concentration, by adding appropriate volumes of 10×PBS (phosphate buffered saline), 1×PBS, and 1M NaOH. For most experiments, samples of DS, decorin, DS-SILY, or DS-SYIR were added at a 10:1 collagen:sample molar ratio by a final 1×PBS addition (equal volumes across treatments) in which the test samples were dissolved at appropriate concentrations. In this way, samples are constantly kept at pH 7.4 and physiologic salt concentration. Collagen-alone samples received a 1×PBS addition with no sample dissolved. Fibrillogenesis will be induced by incubating neutralized collagen solutions at 37° C. overnight in a humidified chamber to avoid dehydration. Gel solutions with collagen:sample molar ratios of other than 10:1 were prepared similarly.
Gels for cryo-SEM were formed, as in EXAMPLE 16, directly on the SEM stage and incubated at 37° C. overnight. The stages were then secured in a cryo-holder and plunged into liquid nitrogen slush. Samples were then transferred to a Gatan Alto 2500 pre-chamber cooled to −170° C. under vacuum. A free-break surface was created with a cooled scalpel, and each sample evaporated under sublimation conditions for 20 min. The sample was coated by platinum sputter coating for 120 s. […] Fibril diameter was calculated using ImageJ software (NIH) measuring individual fibrils by hand (drawing a line across fibrils and measuring its length after properly setting the scale). There were 3 observers, 3 separate images per treatment, 10 fibrils recorded per image giving a total of 90 measurements per treatment. Sheet distance was calculated using ImageJ, again measuring by hand. […]
Using a modification of EXAMPLE 21 fibril diameters were measured by cryo-SEM. Fibril diameters from cryo-SEM images taken at 20,000× were measured using ImageJ software (NIH). At least 45 fibrils were measured for each treatment. […]
Collagen gels were formed in the presence of each additive at a 10:1 molar ratio, as described in EXAMPLE 16, directly on the SEM stage, processed, and imaged as described. Images at 10,000× were analyzed for fibril density calculations. Images were converted to 8-bit black and white, and threshold values for each image were determined using ImageJ software (NIH). […] The ratio of white to black area was calculated using MatLab software. All measurements were taken in triplicate and thresholds were determined by an observer blinded to the treatment.

[3] = system: Human aortic smooth muscle cells; assay: Collagen remodeling: hydroxyproline content in cell medium; format: cell-based; details: cultures up to 30 days
Description: Following a method by Grassl, et al. (Grassl, et al., Journal of Biomedical Materials Research 2002, 60, (4), 607-612), which is herein incorporated in its entirety, collagen gels with or without synthetic PG mimics were formed as described in EXAMPLE 16. Human aortic smooth muscle cells (Cascade Biologics, Portland, Oreg.) were seeded within collagen gels by adding 4×10^6 cells/mL to the neutralized collagen solution prior to incubation. The cell-collagen solutions were pipetted into an 8-well Lab-Tek chamber slide and incubated in a humidified 37° C. and 5% CO2 incubator. After gelation, the cell-collagen gels will be covered with 1 mL Medium 231 as prescribed by Cascade. Every 3-4 days, the medium was removed from the samples and the hydroxyproline content measured by a standard hydroxyproline assay (Reddy, 1996).
To measure degraded collagen in the supernatant medium, the sample was lyophilized, the sample hydrolyzed in 2M NaOH at 120° C. for 20 min. After cooling, free hydroxyproline was oxidized by adding chloramine-T (Sigma) and reacting for 25 min at room temperature. Ehrlich's aldehyde reagent (Sigma) was added and allowed to react for 20 min at 65° C. and followed by reading the absorbance at 550 nm on an M-5 spectrophotometer (Molecular Devices). […] Cultures were incubated for up to 30 days and three samples of each treatment measured. […]

[4] = system: collagen; assay: SILY binding to collagen (Biacore surface plasmon resonance)
Description: Biacore studies were performed on a Biacore 2000 using a CM-3 chip (Biacore, Inc., Piscataway, N.J.). The CM-3 chip is coated with covalently attached carboxymethylated dextran, which allows for attachment of the substrate collagen via free amine groups. Flow cells (FCs) 1 and 2 were used, with FC-1 as the reference cell and FC-2 as the collagen immobilized cell. Each FC was activated with EDC-NHS, and 1500RU of collagen was immobilized on FC-2 by flowing 1 mg/mL collagen in sodium acetate, pH 4, buffer at 5 μL/min for 10 min. Unreacted NHS-ester sites were capped with ethanolamine; the control FC-1 was activated and capped with ethanolamin.
To determine peptide binding affinity, SILY was dissolved in 1×HBS-EP buffer (Biacore) at varying concentrations from 100 uM to 1.5 μm in 2-fold dilutions. […] The first 10 injections were buffer injections, which help to prime the system, followed by randomized sample injections, run in triplicate. Analysis was performed using BIAevaluation software (Biacore).

[5] = biological target: T2, collagen (Bos taurus, UniProt P02453+P02465); assay: Collagen fibrillogenesis by turbidity (absorbance at 313 nm); format: biochemical; details: 1:1 collagen:additive molar ratio
T2 construct: purchased Inamed, Freemont, Calif; (Nutragen)
T2 sequence (P02453 162-1217 limits assumed): as the sequence (P02453 162-1217 limits assumed) above
T2 sequence (P02465 80-1117 limits assumed): as the sequence (P02465 80-1117 limits assumed) above
Description: as §1
Collagen fibrillogenesis was monitored by measuring turbidity related absorbance at 313 nm providing information on rate of fibrillogenesis and fibril diameter. […] A SpectraMax M5 at 37° C. was used to measure absorbance at 313 nm at 30 s intervals for 6 hours. […]

[6] = system: Human coronary artery smooth muscle cells (HCA SMC); assay: Gel compaction by cells seeded in collagen gels; format: cell-based
Description: Human coronary artery smooth muscle cells (HCA SMC) (Cascade Biologics) were cultured in growth medium (Medium 231 supplemented with smooth muscle growth factor). Cells from passage 3 were used for all experiments. Differentiation medium (Medium 231 supplemented with 1% FBS and 1× pen/strep) was used for all experiments unless otherwise noted.
Collagen gels were prepared with each additive as described with the exception that the 1×PBS example addition was omitted to accommodate the addition of cells in media. After incubating on ice for 30 min, HCA SMCs in differentiation medium were added to the gel solutions to a final concentration of 1×10^6 cells/mL. Gels were formed in quadruplicate in 48-well non-tissue culture treated plates (Costar) for 6 hrs before adding 500 μL/well differentiation medium. Gels were freed from the well edges after 24 hrs. Medium was changed every 2-3 days and images for compaction were taken at the same time points using a Gel Doc System (Bio-Rad). The cross-sectional area of circular gels correlating to degree of compaction was determined using ImageJ software (NIH). Gels containing no cells were used as a negative control and cells in collagen gels absent additive were used as a positive control. By day 10 all gels had compacted to approximately 10% of the original gel area, and differences between additives were small.

Molecule	Specific binding to collagen-treated wells [1]	Fibril diameter [2]	Collagen degradation by hydroxyproline content in cell medium [3]	further results
DS-Z-SILY: dermatan sulfate conjugated to dansyl-modified peptide Z-SILY (Dansyl-GRRANAALKAGELYKSILYGC([PDPH-oxidized dermatan sulfate])-NH2)	binds specifically to the collagen-treated wells over BSA and untreated wells	–	–	–
DS-ZDc13: dermatan sulfate conjugate of ZSYIRIADTNITGC (ZDc13)	binds specifically to the collagen surface in a dose-dependent manner	–	–	–
RRANAALKAGELYKSILYGC	–	decrease in fibril diameter	greater collagen degradation compared to collagen alone	Fibril density (ratio of fibril containing area to void space) ([2]; 10:1 collagen:additive, images at 10,000×): significantly greater fibril density; Reversibility of binding to collagen ([4]; association/disassociation curves, FIG. 3): binds reversibly with collagen; Kd ([4]; calculated from the on-off binding kinetics, collagen immobilized on CM-3 chip): 1.2 µM
SYIRIADTNITGC [Dc13, Dc13 peptide]	–	does not affect fibril diameter	greater collagen degradation compared to collagen alone	Effect on fibrillogenesis [5]: little effect on fibrillogenesis compared to collagen alone
Decorin: proteoglycan known to influence collagen fibrillogenesis (protein, UniProt P07585 31-359, looked up) Decorin: DEASGIGPEVPDDRDFEPSLGPVCPFRCQCHLRVVQCSDLGLDKVPKDLPPDTTLLDLQNNKITEIKDGDFKNLKNLHALILVNNKISKVSPGAFTPLVKLERLYLSKNQLKELPEKMPKTLQELRAHENEITKVRKVTFNGLNQMIVIELGTNPLKSSGIENGAFQGMKKLSYIRIADTNITSIPQGLPPSLTELHLDGNKISRVDAASLKGLNNLAKLGLSFNSISAVDNGSLANTPHLRELHLDNNKLTRVPGGLAEHKYIQVVYLHNNNISVVGSSDFCPPGHNTKKASYSGVSLFSNPVQYWEIQPSTFRCVYVRSAIQLGNYK	–	significantly decrease fibril diameter over collagen or collagen+dermatan sulfate	–	Gel compaction, statistical significance ([6]; Day 7): significant against all samples; Gel compaction, statistical significance ([6]; Days 3 and 5): significant relative to collagen and DS
